# Patent publication US7893082B2, “Substituted tetrahydroquinolines” (Merck Patent GmbH, priority 2005, dated 2011)
# Tested on: cells
# Test: cell cycle effect (appended experiments)
# Format: cell-based
# Conditions: G2/M cell cycle
smiles,measurement,value
N=C(N)c1ccc(OCCCCCOc2ccc(C(=N)N)cc2)cc1 [pentamidine],effect on cell cycle,maintain cells in the G2/M cell cycle
